Read-outs that look alike come from different tables or passages of the source.
Experiments:
Type in all cases: cell-based
hPR [1] = target: T1, hPR (Homo sapiens, UniProt P06401); assay: hPR cotransfection assay in CV-1 cells, antagonist mode; details: for Emax: CV-1, CV-1 cells, maximal inhibition of reference agonist at EC50 concentration, read-out: hPR Antagonist CV-1 Cells Eff. (%); for IC50: CV-1 cells
T1 sequence (P06401 1-933): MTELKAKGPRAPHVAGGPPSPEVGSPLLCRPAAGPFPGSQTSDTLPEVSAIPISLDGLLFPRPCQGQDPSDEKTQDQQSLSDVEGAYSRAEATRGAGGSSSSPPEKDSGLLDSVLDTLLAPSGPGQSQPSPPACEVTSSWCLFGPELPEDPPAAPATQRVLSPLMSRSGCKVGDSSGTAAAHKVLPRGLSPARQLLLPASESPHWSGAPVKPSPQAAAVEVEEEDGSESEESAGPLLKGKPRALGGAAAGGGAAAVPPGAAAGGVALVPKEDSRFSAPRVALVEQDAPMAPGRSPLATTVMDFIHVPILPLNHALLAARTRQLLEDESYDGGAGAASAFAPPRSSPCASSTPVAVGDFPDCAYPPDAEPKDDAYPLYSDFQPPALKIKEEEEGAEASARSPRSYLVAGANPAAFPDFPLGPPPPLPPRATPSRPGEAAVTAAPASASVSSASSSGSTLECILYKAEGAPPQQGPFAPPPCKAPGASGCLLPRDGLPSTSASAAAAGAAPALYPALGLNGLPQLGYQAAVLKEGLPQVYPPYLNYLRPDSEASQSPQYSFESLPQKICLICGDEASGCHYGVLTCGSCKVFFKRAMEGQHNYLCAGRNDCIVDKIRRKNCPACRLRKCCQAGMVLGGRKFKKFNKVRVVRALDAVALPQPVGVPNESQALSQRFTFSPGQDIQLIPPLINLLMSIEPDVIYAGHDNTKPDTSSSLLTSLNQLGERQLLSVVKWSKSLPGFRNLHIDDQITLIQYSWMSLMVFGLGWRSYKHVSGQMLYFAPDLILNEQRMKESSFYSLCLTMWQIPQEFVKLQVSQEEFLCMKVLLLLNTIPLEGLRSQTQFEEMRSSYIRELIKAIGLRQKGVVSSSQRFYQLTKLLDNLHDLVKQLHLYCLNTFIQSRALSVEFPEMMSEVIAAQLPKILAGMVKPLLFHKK
Protocol: (§1) Antagonist efficacy was determined as a function (%) of maximal inhibition of a reference agonist at EC50 concentration. All the cotransfection experiments were carried out in 96-well plates by automation (Beckman Biomomek automated workstation).

[2] = target: T2, human mineralocorticoid receptor (hMR) (Homo sapiens, UniProt P08235); assay: hMR cotransfection assay (potency ratio to hPR); details: receptor-selectivity potency ratio, cotransfection assays
T2 sequence (P08235 1-984): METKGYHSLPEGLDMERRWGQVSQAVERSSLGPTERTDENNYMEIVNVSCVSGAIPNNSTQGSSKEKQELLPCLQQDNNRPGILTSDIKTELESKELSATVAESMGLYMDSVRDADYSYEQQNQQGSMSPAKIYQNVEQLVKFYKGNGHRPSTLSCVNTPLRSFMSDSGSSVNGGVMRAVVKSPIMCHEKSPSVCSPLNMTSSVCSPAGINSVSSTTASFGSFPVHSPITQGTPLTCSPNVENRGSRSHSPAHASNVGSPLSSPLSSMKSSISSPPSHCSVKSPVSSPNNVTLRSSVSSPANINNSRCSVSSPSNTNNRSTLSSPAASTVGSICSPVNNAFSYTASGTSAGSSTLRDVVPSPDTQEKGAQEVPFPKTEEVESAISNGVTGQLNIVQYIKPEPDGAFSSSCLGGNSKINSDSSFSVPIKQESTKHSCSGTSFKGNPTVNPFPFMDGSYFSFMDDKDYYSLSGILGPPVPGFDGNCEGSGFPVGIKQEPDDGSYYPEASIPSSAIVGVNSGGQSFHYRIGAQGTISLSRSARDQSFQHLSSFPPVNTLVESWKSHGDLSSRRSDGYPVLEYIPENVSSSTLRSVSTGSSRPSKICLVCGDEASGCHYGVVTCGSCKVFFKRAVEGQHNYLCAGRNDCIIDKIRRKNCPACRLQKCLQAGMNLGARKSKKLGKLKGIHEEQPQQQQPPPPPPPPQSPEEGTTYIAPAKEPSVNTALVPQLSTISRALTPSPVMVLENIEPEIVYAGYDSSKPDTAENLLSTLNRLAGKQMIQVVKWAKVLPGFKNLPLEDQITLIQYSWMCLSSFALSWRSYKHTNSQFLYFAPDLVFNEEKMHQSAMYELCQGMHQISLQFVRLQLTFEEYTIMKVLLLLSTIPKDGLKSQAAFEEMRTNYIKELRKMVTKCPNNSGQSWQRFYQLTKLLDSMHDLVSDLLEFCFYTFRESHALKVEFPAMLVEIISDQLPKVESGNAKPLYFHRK
Protocol: as §1

[3] = target: T3, human androgen receptor (hAR) (Homo sapiens, UniProt P10275); assay: hAR cotransfection assay (potency ratio to hPR); details: receptor-selectivity potency ratio, cotransfection assays
T3 sequence (P10275 1-920): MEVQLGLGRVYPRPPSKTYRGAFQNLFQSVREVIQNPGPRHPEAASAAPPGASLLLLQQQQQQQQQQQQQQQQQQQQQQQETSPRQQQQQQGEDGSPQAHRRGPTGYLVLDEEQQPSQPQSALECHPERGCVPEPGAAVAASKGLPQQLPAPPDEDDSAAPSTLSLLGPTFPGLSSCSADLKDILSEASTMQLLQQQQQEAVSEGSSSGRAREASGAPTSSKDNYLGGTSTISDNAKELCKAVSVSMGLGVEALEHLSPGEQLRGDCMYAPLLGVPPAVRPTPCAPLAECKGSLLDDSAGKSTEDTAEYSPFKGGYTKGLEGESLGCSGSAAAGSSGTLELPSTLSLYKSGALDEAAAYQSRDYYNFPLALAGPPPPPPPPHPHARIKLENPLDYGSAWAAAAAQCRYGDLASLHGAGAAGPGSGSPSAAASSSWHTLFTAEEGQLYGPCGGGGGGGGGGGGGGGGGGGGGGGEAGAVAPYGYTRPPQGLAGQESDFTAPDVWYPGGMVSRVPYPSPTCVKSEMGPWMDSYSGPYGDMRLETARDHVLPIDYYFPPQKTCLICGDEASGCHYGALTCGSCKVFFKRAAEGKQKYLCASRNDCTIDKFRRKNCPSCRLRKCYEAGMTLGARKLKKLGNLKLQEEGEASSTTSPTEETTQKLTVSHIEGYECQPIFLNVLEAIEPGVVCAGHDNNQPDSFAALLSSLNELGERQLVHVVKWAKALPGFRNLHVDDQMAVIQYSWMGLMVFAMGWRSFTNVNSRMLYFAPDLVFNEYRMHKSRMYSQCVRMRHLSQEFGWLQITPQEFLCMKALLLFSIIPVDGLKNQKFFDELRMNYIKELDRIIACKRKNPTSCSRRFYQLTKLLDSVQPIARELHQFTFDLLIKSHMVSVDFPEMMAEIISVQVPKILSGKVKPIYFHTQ
Protocol: as §1

hPR [4] = target: T1, hPR; assay: hPR cotransfection assay in CV-1 cells, agonist mode; details: for Emax: CV-1, CV-1 cells, relative to maximal response of progesterone as 100%, read-out: hPR Agonist CV-1 Cells Eff. (%)
Protocol: as §1

[5] = CV-1 cells, read-out: hPR Agonist CV-1 Cells EC50
[6] = Tables 3 and 4, values without footnote, read-out: hPR agonist potencies (EC50 in nM) in the cotransfection assay

Row | Compound | Emax (hPR [1]) | IC50 (hPR [1]) | hMR EC50 or IC50/hPR EC50 [2] | hAR EC50 or IC50/hPR EC50 [3] | Emax (hPR [4]) | EC50 (hPR [4]; [5]) | EC50 (hPR [4]; [6])
1 | CC1=CC(C)(C)Nc2ccc3c(c21)/C(=C/c1cc(F)ccc1F)Oc1c(F)cc(F)cc1-3 [Compound 17, 7,9-difluoro-5(Z)-(2,5-difluorobenzylidene)-1,2-dihydro-2,2,4-trimethyl-5H-chromeno[3,4-f]quinoline] | < 20% | > 10000 nM | >1000 | 622 | 169% | 2.9 nM | 2.9 nM
2 | COc1ccccc1/C=C1\Oc2c(F)cc(F)cc2-c2ccc3c(c21)C(C)=CC(C)(C)N3 [Compound 18, 7,9-difluoro-5(Z)-(2-methoxybenzylidene)-1,2-dihydro-2,2,4-trimethyl-5H-chromeno[3,4-f]quinoline] | < 20% | > 10000 nM | >1000 | 170 | 142% | 1.3 nM | 1.3 nM
3 | CC1=CC(C)(C)Nc2ccc3c(c21)/C(=C/c1cc(F)ccc1C)Oc1c(F)cc(F)cc1-3 [Compound 19, 7,9-difluoro-5(Z)-(2-methyl-5-fluorobenzylidene)-1,2-dihydro-2,2,4-trimethyl-5H-chromeno[3,4-f]quinoline] | < 20% | > 10000 nM | >1000 | >1000 | 212% | 1.4 nM | 1.4 nM
4 | CC1=CC(C)(C)Nc2ccc3c(c21)/C(=C/c1ccncc1C)Oc1c(F)cc(F)cc1-3 [Compound 20, 7,9-difluoro-5(Z)-(3-methyl-4-picolylidene)-1,2-dihydro-2,2,4-trimethyl-5H-chromeno[3,4-f]quinoline] | < 20% | > 10000 nM | >1000 | 8 | 147% | 2.8 nM | 2.8 nM
5 | COc1ccc(F)cc1/C=C1\Oc2c(F)cc(F)cc2-c2ccc3c(c21)C(C)=CC(C)(C)N3 [Compound 26, 7,9-difluoro-5(Z)-(2-methoxy-5-fluorobenzylidene)-1,2-dihydro-2,2,4-trimethyl-5H-chromeno[3,4-f]quinoline] | < 20% | > 10000 nM | >1000 | 742 | 159% | 0.6 nM | 0.6 nM
6 | CC1=CC(C)(C)Nc2ccc3c(c21)/C(=C/Br)Oc1c(F)cc(F)cc1-3 [Compound 29, 7,9-difluoro-5(Z)-bromomethylidene-1,2-dihydro-2,2,4-trimethyl-5H-chromeno[3,4-f]quinoline] | < 20% | > 10000 nM | >1000 | 6 | 191% | 2.3 nM | –
7 | CC1=CC(C)(C)Nc2ccc3c(c21)/C(=C/c1ccsc1)Oc1c(F)cc(F)cc1-3 [Compound 30, 7,9-difluoro-5(Z)-(3-thienylmethylidene)-1,2-dihydro-2,2,4-trimethyl-5H-chromeno[3,4-f]quinoline] | < 20% | > 10000 nM | >1000 | 377 | 186% | 5.3 nM | –
8 | CC1=CC(C)(C)Nc2ccc3c(c21)/C(=C/c1cccs1)Oc1c(F)cc(F)cc1-3 [Compound 31, 7,9-difluoro-5(Z)-(2-thienylmethylidene)-1,2-dihydro-2,2,4-trimethyl-5H-chromeno[3,4-f]quinoline] | < 20% | > 10000 nM | >1000 | 517 | 171% | 2.7 nM | 2.7 nM
